Converted amounts (≈) assume the structure as drawn.
Tests used:
Type in all cases: physicochemical
[1] = Hygroscopicity: water sorption and desorption by dynamic vapor sorption (DVS)
Procedure: In some embodiments, the crystalline form described herein is further characterized by is further characterized by a dynamic vapor sorption (DVS) profile. In some embodiments, a DVS is recorded according to the method as described herein with a cycle of 40-0-95-0-40% RH at 25° C.
Water sorption and desorption behaviors of Form A, Form C, Form D, and Form T were investigated by DVS at 25° C. with a cycle of 40-0-95-0-40% RH. Dm/dt was 0.002. Minimum equilibration time was 60 min. Maximum equilibration time was 360 min. XRPD was measured after DVS test to determine potential form change.

Water activity study = conditions: acetonitrile/water system, 5° C. and 25° C.
Description: These solvent mixtures were saturated with the compound of Formula (I) before addition of the polymorph seeds. […] These solvent mixtures were saturated with the compound of Formula (I) before addition of the polymorph seeds. Obtained suspension was filtered. Solid part (wet cake) was investigated by XRPD.

[2] = Bulk stability of crystalline forms; conditions: for Purity, Bulk (HPLC): Solid state
Description: (§1) Solids obtained after bulk stability study were characterized by XRPD and HPLC.

[3] = Equilibrium solubility in FeSSIF and FaSSIF; conditions: for solubility at 24 h: 37 °C, thermodynamic from solid, target concentration 1 mg/mL, HPLC method 1 or 2 (footnote); for impurity in solubility sample: no unit printed for impurity (column head mg/mL)
Procedure: (§2) Solid part and liquid part were separated by filtration. Solubility was measured by HPLC. Solid part (wet cake) was investigated by XRPD.

[4] = Equilibrium solubility in SGF (pH 2.0), 0.1 N HCl (pH 1.2) and phosphate buffer (pH 8.0); conditions: for Solubility: target concentration 1 mg/mL, HPLC method 2
Procedure: as §2

[5] = Intrinsic dissolution rate (IDR) evaluation in FaSSIF; conditions: FaSSIF at 37° C.
Procedure: Only one surface of the pellet was exposed (surface area=0.50 cm^2) to 900 mL FaSSIF, the dissolution medium. Temperature of chamber medium was set as 37±0.5° C. Shaft rotation as 100 rpm and sampling time points as 2 min, 5 min, 10 min, 15 min, 20 min, 25 min, 30 min, 35 min, 40 min, 50 min, 60 min, and 120 min. 2 mL sample solution was withdrawn at each time point and centrifuged at 14,000 rpm for 5 min to isolate supernatant. Then concentration of the supernatant was analyzed by HPLC. After 120 min, XRPD of disc surface was measured.

[6] = Bulk stability of crystalline forms; parameters: key: Color A: All No change of color; conditions: Solid state
Description: as §1

[7] = 25° C./92% RH, open container, 1 week
[8] = 25° C./92% RH, open container, 2 weeks
[9] = 40° C./75% RH, open container, 1 week
[10] = 40° C./75% RH, open container, 2 weeks
[11] = 60° C., tight container, 1 week
[12] = 60° C., tight container, 2 weeks
[13] = FaSSIF, pH 6.5, 37° C., 24 hours
[14] = FeSSIF, pH 5.0, 37° C., 24 hours
[15] = pH 1.2 (0.1N HCl), 37° C., 24 hours
[16] = pH 8 (phosphate buffer), 37° C., 24 hours

Q: For `Nc1nc(=O)n(-c2ccccc2Cl)c2nc(C(F)(F)F)ccc12` [Form A, 4-Amino-1-(2-chlorophenyl)-7-(trifluoromethyl)pyrido[2,3-d]pyrimidin-2(1H)-one], which hygroscopicity ([1]; DVS at 25° C., cycle 40-0-95-0-40% RH) is on record?
A: slightly hygroscopic

Q: And the water uptake ([1]; DVS, in 95% RH at 25° C.)?
A: 0.7%

Q: And the “form change after the DVS test” value ([1]; XRPD after DVS)?
A: No form change

Q: And the “form obtained in water activity experiments (relative stability of Forms A, C, D and E)” value (Water activity study)?
A: highly crystalline Form A was obtained in all the solvent mixtures

Q: And the “Purity, Bulk (HPLC)” value [2, 7]?
A: 99.0%

Q: What about the “Purity, Bulk (HPLC)” value [2, 8] of the same compound?
A: 99.2%

Q: What about the “Purity, Bulk (HPLC)” value [2, 9] of the same compound?
A: 99.0%

Q: And the “Purity, Bulk (HPLC)” value [2, 10]?
A: 99.1%

Q: What about the “Purity, Bulk (HPLC)” value [2, 11] of the same compound?
A: 99.1%

Q: What about the “Purity, Bulk (HPLC)” value [2, 12] of the same compound?
A: 99.2%

Q: What about the Initial purity ([2]; before stress, HPLC) of the same compound?
A: 99.0%

Q: And the “chemical stability and physical stability (bulk stability)” value ([2]; stressed under 25° C./92 RH, 40% C/75% RH and 60° C., XRPD and HPLC)?
A: good chemical stability and physical stability

Q: And the solubility at 24 h ([3]; FaSSIF, pH 6.5, fassif, pH 6.5, 37° C.)?
A: 90 µg/mL (≈ 264 µM)

Q: What about the “XRPD of solid after solubility test” value [3, 13] of the same compound?
A: Form A + NaCl

Q: And the “final pH” value [3, 13]?
A: 6.5

Q: And the “impurity in solubility sample” value [3, 13]?
A: no impurity

Q: What about the solubility at 24 h ([3]; FeSSIF, pH 5, fessif, pH 5.0, 37° C.) of the same compound?
A: 240 µg/mL (≈ 704 µM)

Q: What about the “final pH” value [3, 14] of the same compound?
A: 5.0

Q: And the “impurity in solubility sample” value [3, 14]?
A: no impurity

Q: What about the “form obtained from the solubility study in 0.1 N HCl solution” value ([4]; 0.1 N HCl) of the same compound?
A: Form R

Q: What about the “XRPD pattern after the solubility test in 0.1 N HCl and SGF” value ([4]; 37° C., 24 hours) of the same compound?
A: two new patterns were obtained

Q: What about the “form obtained from the solubility study in simulated gastric fluid” value ([4]; SGF, pH 2.0) of the same compound?
A: Form Q

Q: What about the “XRPD of solid after solubility test” value ([4]; SGF, pH 2.0, 37° C., 24 hours) of the same compound?
A: Form Q

Q: And the “final pH” value ([4]; SGF, pH 2.0, 37° C., 24 hours)?
A: 2.2

Q: And the Solubility ([4]; SGF, pH 2.0, 37° C., 24 hours)?
A: 60 µg/mL (≈ 176 µM)

Q: And the “XRPD of solid after solubility test” value [4, 15]?
A: Form R

Q: And the “final pH” value [4, 15]?
A: 1.3

Q: And the Solubility [4, 15]?
A: 100 µg/mL (≈ 294 µM)

Q: And the “XRPD of solid after solubility test” value [4, 16]?
A: Form A

Q: What about the “final pH” value [4, 16] of the same compound?
A: 8.0

Q: And the “impurity in solubility sample” value [4, 16]?
A: no impurity

Q: And the Solubility [4, 16]?
A: 30 µg/mL (≈ 88.1 µM)

Q: What about the “XRPD after IDR” value ([5]; disc surface after 120 min) of the same compound?
A: No form change

Q: What about the “Concentration detected during IDR test (Comments)” value ([5]; for Form V and Form A remains same during the whole process, LOQ for Form T and amorphous form) of the same compound?
A: (0.006 mg/mL)

Q: And the Color [6, 7]?
A: A

Q: And the Color [6, 8]?
A: A

Q: What about the Color [6, 9] of the same compound?
A: A

Q: What about the Color [6, 10] of the same compound?
A: A

Q: What about the Color [6, 11] of the same compound?
A: A

Q: What about the Color [6, 12] of the same compound?
A: A
